Experimental data taken from a melting point compilation (Tetko et al.; mined from patent text by program, amines drawn as free bases though some values may be those of a salt).

Compound | melting point [°C]
O=C(Nc1nc(C(F)(F)C(F)(F)F)c(I)s1)c1cc(C(F)(F)F)cc(C(F)(F)F)c1 | 143 to 144
O=C1NC(c2c[nH]c3ccccc23)C(=O)N1CCCN1CCCCC1 (stereo unspecified) | 233 to 234
NCCc1ccc(C(N)=O)cc1 | 132 to 133
O=C(/C=C/c1ccc2ccccc2c1)Nc1cc(Cl)ccc1NC(=O)C(F)(F)F | 179 to 185
O=S1(=O)NC[C@@H](O)c2cc(Cl)sc21 | 126 to 127
CN(C)Cc1nc(CO)nn1-c1ccc(Cl)cc1C(=O)c1ccccc1 | 198 to 200
CC(C)(C)OC(=O)N1CCC(c2ccc(N3C[C@H](COS(C)(=O)=O)OC3=O)cc2F)CC1 | 163 to 165
Nc1ncc2c(n1)CCC(NC(=O)[C@@H]1CCCN1C(=O)[C@@H](CC1CCCCC1)NS(=O)(=O)Cc1ccccc1)C2 (stereo partly specified) | 114 to 117
COc1ccc2c(c1OC)CCCC2(O)CN (stereo unspecified) | 138 to 140
COc1ccc2cc(C3(O)CN4CCC3CC4)ccc2c1 (racemic) | > 330
CCCNc1nc(=O)n(CC2CC2)c2nc(C(C)C)[nH]c12 | 208 to 210
COc1ccc(C2C=C3CCN(C)CC3C(CO)C2CO)cc1 (stereo unspecified) | 169 to 171
COc1ccc(-c2c(NC(=O)Nc3ccc(F)cc3F)c(=O)oc3ccc(Cl)cc23)cc1OC | 267 to 270
C=C(C)C(=O)Nc1ccc(NC(=O)Nc2ccc(C#N)cc2)c(O)c1 | 247 to 249
COc1cc2c(Nc3ccc4c(c3)NCC4)c(C#N)cnc2cc1OCCCc1ccncc1 | 100 to 105
CC(CCCC(C)(C)Cl)C1CC=C2C3=C(CCC21C)C1(C)CCC(O)C(C)(C)C1CC3 (stereo unspecified) | 131 to 133
COc1ccc(CN(CCN(C)CCCN=C(NC#N)NCCSCc2csc(NC(=N)N)n2)c2ccccn2)cc1 | 54

Compound | melting point [°C]
O=C1NS(=O)(=O)c2cc(O)cc(O)c21 | 286
O=C(N[C@H](Cc1cccc(OCC(F)(F)F)c1)[C@@H](O)c1ccc(F)cc1)c1ccc(F)c2ccccc12 (racemic) | 192 to 193
O=[N+]([O-])C=Cc1ccc(OCc2ccccc2)c(OCc2ccccc2)c1 | 118 to 119
COc1cc(OC)c2cc(-c3ccc(OC)nc3OC)oc2c1 | 155 to 156
O=C(O)CCc1cccc(NC(=O)NCC(=O)N2[C@@H](c3ccccc3)CC[C@H]2c2ccccc2)c1 | 170
OC12N=C(c3ccccc3)SC1Cc1cc(Cl)ccc12 (stereo unspecified) | 155
Cc1ccc(-c2c(-c3ccc(S(C)(=O)=O)cc3)[nH]c3ccccc23)cc1 | 197 to 198
O=C1C(=O)N2CCSc3cc(Br)cc1c32 | 196
CC(CCNC1=Nc2ccc(S(=O)(=O)N(C)C)c3cccc1c23)n1ccnc1 (stereo unspecified) | 221 to 222
O=C(C=Cc1ccc(O)cc1)C=Cc1ccc(O)cc1 | 236
COc1ccc(-c2ccccc2)c(NC(=N)N2CCOCC2)c1 | 140 to 142
CC1(C)NC(=O)N(CC(O)Cc2cc(C(C)(C)C)c(O)c(C(C)(C)C)c2)C1=O (stereo unspecified) | 175 to 176
Oc1ccc2c(c1)OCC(c1cccc(F)c1)C2c1ccc(OCCN2CCCC2)cc1 (stereo unspecified) | 146 to 150
COc1ccc(-c2nc(SCC(F)(F)F)[nH]c2-c2ccc(OC)cc2)cc1 | 119 to 120
O=C1Cc2cc3c(cc2CCN1)OCO3 | 236 to 237
O=C(O)CN(CC(=O)O)CC(CO)C(=O)O (stereo unspecified) | 195
COc1ccc(Br)c2c1C1C(=O)N(C)C(=O)C1CC2 (stereo unspecified) | 201 to 202

The remaining lines, values ahead:

melting point [°C] | Compound
158 to 160 | CC(C)c1ccc2c(c1)OC(C(F)(F)F)C(C(=O)O)=C2 (stereo unspecified)
222 | CCC(=O)OC(c1nc2c(C(F)(F)F)cccc2c(O)c1C(=O)Nc1nccs1)C(C)C (stereo unspecified)
270 | CCC(C(O)c1ccc(Cl)cc1)n1ncn(-c2ccc(N3CCN(c4ccc(O)cc4)CC3)cc2)c1=O (stereo unspecified)
153 to 155 | Cc1cc(C)c(C(=O)O)s1
134 to 137 | CC(=NO)c1ccc2c(c1)N(C(=O)OC(C)(C)C)CCC2
51 to 53 | CCCS(=O)(=O)Oc1c(C(=O)c2nn(C)c(=O)n(-c3ccccc3)c2=O)cnn1C(C)C
215 to 217 | Cn1c(=O)[nH]c2nc3ccc(OCCCC(=O)N4CCCCC4)cc3cc21
135 to 136 | CCOC(=O)c1c(C)ncn1-c1ccc(Cl)c(Cl)c1
155 to 157 | CCOC(=O)C(=O)c1csc(NC(=S)NC(=O)c2ccccc2)n1
149 | CC(C(=O)Cl)c1ccc(C(=O)c2cccs2)cc1 (stereo unspecified)
180 to 181 | Cc1nc(-n2cnn(CC3CC3)c2=O)sc1C(N)=O
155 to 159 | COC(=O)c1ccc(C2CNN=C2c2ccc(Cl)cc2)cc1 (stereo unspecified)
55 to 59 | COc1ccc2c(c1)CCC(=O)C2CC(=O)c1ccccc1 (stereo unspecified)
172 | Cc1ccc(N2C(=O)C(O)=C(C(=O)c3ccc(C(F)(F)F)nc3)C2c2ccc(OC(F)(F)F)cc2)nn1 (stereo unspecified)
122 to 124 | COc1cccc(CC(=O)Nc2cc(Cl)c(Cl)cc2[N+](=O)[O-])c1
155 to 158 | CCC1c2cc(OC)c(OC)cc2C(C=Cc2ccc(N)cc2)=NNC1C (stereo unspecified)
122 to 123 | CCOC(=O)COc1cc(Cl)c2c(=O)c(-c3ccccc3C)coc2c1
250 to 253 | O=c1cc(O)c2cccnc2n1Cc1ccccc1
181 to 183 | Nc1ncnc2c1ncn2[C@H]1C=C[C@@H](O)CC1 (racemic)

melting point [°C] | Compound
94 to 98 | Nc1ccc(Cl)cc1C(O)c1ccccc1F (stereo unspecified)
168 | COc1ccc(-c2nc(-c3ccc(Cl)cc3)ncc2C(=O)N2CCOCC2)cc1OC
190 to 191 | COCC1CN(c2ccc3cc(O)ccc3c2)C(=O)O1 (stereo unspecified)
221 | CCOC(=O)N1CCN(c2ccc(-n3cn[nH]c3=O)cn2)CC1
82 to 84.5 | CC(=O)CS(=O)CCc1ccc2c(c1)OCO2 (stereo unspecified)
> 210 | NCC1Cc2cccc(-c3ccc(F)c(Cl)c3)c2O1 (stereo unspecified)
137 to 138 | COC(=O)C(C)(C)Cc1ccc2oc(-c3ccc4ccc(Cl)cc4n3)cc2c1
100 to 101 | CCOC(=O)CCCOc1ccc(NC(=O)c2ccc(C(C)(C)C)cc2)cc1
225 to 230 | COc1cc2c(C)c(C#N)c(SC)nc2cc1OC(C)=O
133 to 135 | COc1ccc(C2=NN(CC(=O)c3ccccc3)C(=O)[C@H]3CCCC[C@@H]23)cc1OC (relative stereo)
118 to 120 | CC(=O)c1ccc(N(C(C)=O)c2ccccc2)cc1
169 | CCOc1cc(C(CC(N)=O)N2Cc3ccccc3C2=O)ccc1OC (stereo unspecified)
> 200 | O=C(c1ccc(-c2cnc3c(c2)N(Cc2cc(Cl)ccc2Cl)C(=O)CN3)cc1)N1CCC(N2CCCC2)CC1
61 to 64 | CCOC(=O)/C=C/c1ccc(OCCOC)cc1Oc1ccc([N+](=O)[O-])cc1
132 | CSc1ccc(C(C)Nc2nc(NC(C)=O)nc(C(F)(F)F)n2)cc1 (stereo unspecified)
116 | CCCCCCc1ccc(C(=O)Nc2ccc3cc(CN4CCCC4)cnc3c2C)cc1
92 to 94 | CCCCCCCCCCN1C(=O)C2CC2(c2ccc(N)cc2)C1=O (stereo unspecified)
145 | Cn1cc(-c2ccccc2)c(C(=O)NCCNC(=O)OC(C)(C)C)n1
